Entries after “also recorded” stand apart in the source; their conditions may differ. Read-outs that look alike come from different tables or passages of the source.
Assays:
ERα [1] = target: T1, ERα (Homo sapiens, UniProt P03372); assay: Competitive binding assay using [3H]E2 against GST-fused ERα LBD
T1 construct: the ERα LBD was amplified by polymerase chain reaction and subcloned into the pGEX-6P-1 vector; made in house; host or cells: Escherichia coli BL21α
T1 sequence (P03372 311-547 limits assumed): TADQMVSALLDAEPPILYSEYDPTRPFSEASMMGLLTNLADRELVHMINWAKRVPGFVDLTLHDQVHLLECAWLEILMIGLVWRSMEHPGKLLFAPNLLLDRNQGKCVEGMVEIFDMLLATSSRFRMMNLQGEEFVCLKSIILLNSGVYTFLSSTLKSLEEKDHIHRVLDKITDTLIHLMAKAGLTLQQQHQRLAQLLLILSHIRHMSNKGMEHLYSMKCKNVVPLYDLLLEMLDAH
Description: The ERα cDNA clone was purchased from OriGene Technologies, Inc. (Rockville, MD, USA). For construction of the expression plasmid, the ERα LBD was amplified by polymerase chain reaction and subcloned into the pGEX-6P-1 vector (GE Healthcare, Chicago, IL, USA) to obtain as a GST-fused protein. The GST-fused ERα -LBD was expressed in Escherichia coli BL21α cells and purified using Glutathione-Sepharose 4B (GE Healthcare), followed by gel filtration on a Sephadex G-10 column (GE Healthcare).
We performed the radioligand binding assays for ERα according to previously reported by method. […] GST-ERα-LBD (20 ng) was incubated with a series of [^3H]E2 (0.1–30 nM) in a total volume of 100 μL of binding buffer [10% glycerol, 10 mM Tris, 1 mM EGTA, 1 mM EDTA, 1 mM sodium vanadate (V), 0.5 mM phenylmethylsulfonyl fluoride, and 0.2 mM leupeptin (pH 7.4)] for 2 h at 20 °C in order to estimate total binding. Specific binding was calculated by subtracting the nonspecific binding determined by addition of 10 μM non-radiolabeled E2 to another set of working solutions from the observed total binding. After incubation, free radioligand was removed by addition and incubation of 100 μL 0.4% dextran-coated charcoal (Sigma-Aldrich) in phosphate-buffered saline (PBS; pH 7.4) on ice for 10 min. After centrifugation for 10 min at 15,000 rpm, the radioactivity of each supernatant was measured using a liquid scintillation counter (LS6500; Beckman Coulter, Fullerton, CA, USA). The data of the calculated specific binding of [^3H]E2 were assessed by Scatchard plot analysis.
The binding affinities of the test compounds were evaluated by competitive binding assays. Each chemical was dissolved in DMSO to prepare a 1.0-mM stock solution, followed by subsequent incubation of serial dilutions (1 pM to 10 μM) with GST- ERα-LBD (20 ng) and [^3H]E2 (5 nM, final) for 2 hrs at 20 °C to assess their ability to hinder the binding of [^3H]E2. Free radioligand was absorbed by 0.4% dextran-coated charcoal for the saturation binding assay and removed by the vacuum filtration system using a 96-well filtration plate (MultiScreenHTS HV; […] pore size; Merck KGaA, Darmstadt, Germany). The radioactivities of the eluents were measured using a TopCount NXT system (PerkinElmer) for 3 min/well.

ERα [2] = target: T2, ERα (Homo sapiens, UniProt P03372); assay: Luciferase-reporter assay for agonist activity in transiently transfected HeLa cells; format: cell-based; conditions: for ERα agonist / transcriptional activity (in words): reporter-gene assay, 0.1-10 μM
T2 construct: expressed in transfected cells; host or cells: HeLa cells
T2 sequence (P03372 1-595): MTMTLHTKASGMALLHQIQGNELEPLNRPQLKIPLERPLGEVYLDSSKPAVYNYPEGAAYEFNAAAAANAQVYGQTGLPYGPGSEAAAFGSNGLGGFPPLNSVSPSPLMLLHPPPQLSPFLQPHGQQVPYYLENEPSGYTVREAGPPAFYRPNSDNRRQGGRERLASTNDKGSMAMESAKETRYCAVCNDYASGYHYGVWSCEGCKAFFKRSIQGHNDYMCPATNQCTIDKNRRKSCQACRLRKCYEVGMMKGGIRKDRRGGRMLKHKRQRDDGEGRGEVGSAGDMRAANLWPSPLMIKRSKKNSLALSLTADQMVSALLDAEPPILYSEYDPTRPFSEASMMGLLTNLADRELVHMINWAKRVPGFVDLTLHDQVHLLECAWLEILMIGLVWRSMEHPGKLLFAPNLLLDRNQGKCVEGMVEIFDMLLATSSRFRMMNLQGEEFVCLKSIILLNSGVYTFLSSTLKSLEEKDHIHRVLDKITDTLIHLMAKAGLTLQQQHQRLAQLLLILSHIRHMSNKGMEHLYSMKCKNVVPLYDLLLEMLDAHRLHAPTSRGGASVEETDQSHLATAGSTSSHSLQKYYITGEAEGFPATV
Protocol: HeLa cells were maintained in Eagle’s minimum essential medium (MEM; Nissui Pharmaceutical Co., Ltd, Tokyo, Japan) supplemented with 10% (v/v) foetal bovine serum treated with dextran-coated charcoal at 37 °C under 5% CO2. To analyse the agonist activity, HeLa cells were incubated at a density of 5 × 10^5 cells per 60-mm dish for 24 h, followed by transfection of 3 μg of the reporter plasmid (3 × ERE/pGL4.23) and 1 μg of the ERα expression plasmid (ERα/pcDNA3.1) using Lipofectamine LTX reagent (Thermo Fisher Scientific, Waltham, MA, USA) according to the manufacturer’s instructions. After 24 h, cells were harvested, suspended in Eagle’s MEM, and seeded into 96-well plates at 5 × 10^4 cells/well, followed by treatment with a series of the test compounds diluted with 1% bovine serum albumin (BSA)/PBS (v/v) to prepare different concentrations (0–10 μM). After a 24-h incubation, luciferase activity was measured using a Luciferase Assay system (Promega, Madison, WI, USA) according to the manufacturer’s instructions. […] Cells treated only with 1% BSA/PBS were used as a vehicle control. Each assay was performed in triplicate and repeated at least three times.

ERα [3] = target: T2, ERα; assay: Luciferase-reporter assay for antagonist activity in the presence of E2, HeLa cells; format: cell-based; conditions: for ERα antagonist activity against E2-induced transcription (in words): 1 pM to 10 μM compound in a solution of E2 (1 nM); for reduction of E2-mediated ERα activity: highest concentration, 10 μM
Protocol: HeLa cells were maintained in Eagle’s minimum essential medium (MEM; Nissui Pharmaceutical Co., Ltd, Tokyo, Japan) supplemented with 10% (v/v) foetal bovine serum treated with dextran-coated charcoal at 37 °C under 5% CO2. To analyse the agonist activity, HeLa cells were incubated at a density of 5 × 10^5 cells per 60-mm dish for 24 h, followed by transfection of 3 μg of the reporter plasmid (3 × ERE/pGL4.23) and 1 μg of the ERα expression plasmid (ERα/pcDNA3.1) using Lipofectamine LTX reagent (Thermo Fisher Scientific, Waltham, MA, USA) according to the manufacturer’s instructions. After 24 h, cells were harvested, suspended in Eagle’s MEM, and seeded into 96-well plates at 5 × 10^4 cells/well, followed by treatment with a series of the test compounds diluted with 1% bovine serum albumin (BSA)/PBS (v/v) to prepare different concentrations (0–10 μM). After a 24-h incubation, luciferase activity was measured using a Luciferase Assay system (Promega, Madison, WI, USA) according to the manufacturer’s instructions. Briefly, cells were lysed using reporter lysis buffer (Promega), and luminescence was measured using a Wallace 1420 ARVOsx multilabel counter (PerkinElmer). Cells treated only with 1% BSA/PBS were used as a vehicle control. Each assay was performed in triplicate and repeated at least three times.
To evaluate antagonistic activity, we examined serial concentrations of test compounds (0–10 μM, final) in the presence of 1 nM or 10 nM concentrations of E2, which normally induces basal levels of ERα-related transcriptional activity.

[4] = contaminant of industrial BPA; cited from earlier work
[5] = system: oestrogen receptors (ERs); conditions: cited from earlier work
[6] = system: adult male mouse offspring; conditions: in utero exposure to 2 μg/kg/day or 20 μg/kg/day; cited from earlier work
[7] = [3H]17β-oestradiol radioligand (5 nM), GST-ERα-LBD, mean ± SE, read-out: Binding affinity (IC50)

Q: For `Oc1ccc(C(=C(Cl)Cl)c2ccc(O)cc2)cc1` [compound 1, bisphenol C], which IC50 (ERα [1]; [3H][…] radioligand (5 nM), GST-ERα-LBD, mean ± SE, read-out: Binding affinity (IC50)) is on record?
A: 2.81 ± 0.61 nM

Q: And the “transcriptional activity relative to that of E2” value (ERα [2]; ERα reporter-gene assay)?
A: ~ 60%

Q: What about the “ERα agonist / transcriptional activity (in words)” value (ERα [2]) of the same molecule?
A: apparent agonistic activity

Q: And the “ERα antagonist activity against E2-induced transcription (in words)” value (shortened to “ERα antagonist activity”) (ERα [3])?
A: did not observe any antagonistic activity

Q: With `CC(C)CC(C)(c1ccc(O)cc1)c1ccc(O)cc1` [compound 2, 4,4′-(1,3-dimethylbuthylidene)bisphenol] as the molecule, how does the “estrogenic activity higher than laboratory grade BPA” value [4] read?
A: 8 fold

Q: With `CC(C)(c1ccc(O)cc1)c1cccc(C(C)(C)c2ccc(O)cc2)c1` [compound 7, bisphenol M] as the molecule, how does the IC50 (ERα [1]) read?
A: 56.8 ± 11.7 nM

Q: And the “ERα agonist / transcriptional activity (in words)” value (ERα [2])?
A: weak transcriptional activity

Q: And the “ERα agonist / transcriptional activity (in words)” value (ERα [2]; listed as BPM)?
A: almost no ERα-specific transcriptional activity

Q: What about the “ERα antagonist activity” value (ERα [3]) of the same molecule?
A: inhibited the agonist activity of 1 nM E2 in a dose-dependent manner

Q: What about the “reduction of E2-mediated ERα activity” value (ERα [3]) of the same molecule?
A: up to 90%

Q: Which results are given for `CC(C)(c1ccc(O)cc1)c1ccc(C(C)(c2ccc(O)cc2)c2ccc(O)cc2)cc1` [compound 10, α,α,α′-tris(4-hydroxyphenyl)-1-ethyl-4-isopropylbenzene]?
A: IC50 (ERα [1]; [7]): 61.7 ± 10.4 nM; ERα agonist / transcriptional activity (in words) (ERα [2]): weak transcriptional activity; also recorded: almost no ERα-specific transcriptional activity; ERα antagonist activity against E2-induced transcription (in words) (ERα [3]): inhibited the agonist activity of 1 nM E2 in a dose-dependent manner; reduction of E2-mediated ERα activity (ERα [3]): up to 90%

Q: Which IC50 (ERα [1]; [7]) does the source give for `CC(C)(c1ccc(O)cc1)c1ccc(C(C)(C)c2ccc(O)cc2)cc1` [compound 11, bisphenol P] here?
A: 176 ± 35 nM

Q: What about the “ERα agonist / transcriptional activity (in words)” value (ERα [2]) of the same molecule?
A: weak transcriptional activity

Q: And the “ERα agonist / transcriptional activity (in words)” value (ERα [2]; listed as BPP)?
A: almost no ERα-specific transcriptional activity

Q: What about the “ERα antagonist activity” value (ERα [3]) of the same molecule?
A: inhibited the agonist activity of 1 nM E2 in a dose-dependent manner

Q: What about the “reduction of E2-mediated ERα activity” value (ERα [3]) of the same molecule?
A: up to 90%

Q: With `Nc1cc(C(c2ccc(O)c(N)c2)(C(F)(F)F)C(F)(F)F)ccc1O` [compound 15, 2,2-bis(3-amino-4-hydroxyphenyl)hexafluoropropane] as the molecule, how does the IC50 (ERα [1]; [7]) read?
A: 334 ± 112 nM

Q: What about the “ERα agonist / transcriptional activity (in words)” value (ERα [2]) of the same molecule?
A: apparent agonistic activity

Q: For `CC1(C)CC2(CC(C)(C)c3ccc(O)cc3O2)Oc2cc(O)ccc21` [compound 16, spirobicromane], which IC50 (ERα [1]; [7]) is on record?
A: 366 ± 20 nM

Q: What about the “ERα agonist / transcriptional activity (in words)” value (ERα [2]) of the same molecule?
A: weak transcriptional activity

Q: And the “ERα antagonist activity” value (ERα [3])?
A: inhibited the agonist activity of 1 nM E2 in a dose-dependent manner

Q: And the “reduction of E2-mediated ERα activity” value (ERα [3])?
A: up to 90%

Q: Which IC50 (ERα [1]; [7]) does the source give for `Cc1cc(C(C)(C)c2ccc(C(C)(C)c3cc(C)c(O)c(C)c3)cc2)cc(C)c1O` [compound 18, α,α′-bis(4-hydroxy-3,5-dimethylphenyl)-1,4-diisopropylbenzene] here?
A: 733 ± 628 nM

Q: And the “ERα agonist / transcriptional activity (in words)” value (ERα [2])?
A: weak transcriptional activity

Q: And the “ERα antagonist activity” value (ERα [3])?
A: inhibited the agonist activity of 1 nM E2 in a dose-dependent manner

Q: And the “reduction of E2-mediated ERα activity” value (ERα [3])?
A: up to 90%

Q: For `Nc1ccc(Oc2ccc(C(c3ccc(Oc4ccc(N)cc4)cc3)(C(F)(F)F)C(F)(F)F)cc2)cc1` [compound 19, 2,2-bis[4-(4-aminophenoxy)phenyl]hexafluoropropane], which IC50 (ERα [1]; [7]) is on record?
A: 1030 ± 375 nM

Q: What about the “ERα agonist / transcriptional activity (in words)” value (ERα [2]) of the same molecule?
A: weak transcriptional activity

Q: What does the source list for `CC(C)(c1ccc(O)cc1)c1ccc(O)cc1` [compound 21, bisphenol A]?
A: ERα agonist / transcriptional activity (in words) (ERα [2]): apparent agonistic activity; affinity for ERs weaker than 17β-oestradiol (E2) [5]: > 1,000 fold; effect on prostate in adult male offspring (in words) [6]: increases prostate size and weight

Q: Which results are given for `Oc1ccc(C2(c3ccc(O)cc3)c3ccccc3-c3ccccc32)cc1` [compound 22, 9,9-bis(4-hydroxyphenyl)fluorine]?
A: IC50 (ERα [1]; [7]): 2230 ± 202 nM; binding to the ERα LBD (in words) (ERα [1]; competitive binding assay using [3H]E2): directly binds to the ERα LBD; ERα agonist / transcriptional activity (in words) (ERα [2]): weak transcriptional activity

Reference: paper PMC6616570, “Discovery of novel oestrogen receptor α agonists and antagonists by screening a revisited privileged structure moiety for nuclear receptors” (Scientific Reports, 2019)
